The results in this text go back to patent publication US20160361391A1, “REDUCTION OF TRAF1 LEVELS COMBINED WITH NUTRIENT STRESS FOR TREATING LYMPHOCYTE-RELATED CANCERS” (THE GOVERNING COUNCIL OF THE UNIVERSITY OF TORONTO, priority 2014, published 2016).

Common to all, as to type: cell-based, human
Data set [1] relates to Chronic lymphocytic leukemia cell line MEC2. Put plainly: Annexin V / propidium iodide cell death by flow cytometry, MEC2. Particulars: MEC2, 1 IU/ml Erwinase, 0, 18, 24 or 42 hrs. The method, then:
MEC2 cells were transfected with control shRNA (shCTRL), shTRAF1 or shPKN1 and then were left untreated or treated with 1 IU/ml Erwinase for 0, 18, 24 or 42 hrs. Cell death was measured by flow cytometry for Annexin V and propidium iodide (PI), where double staining for Annexin V and Propidium iodide (PI) is used to indicate cell death.

A further data set deals with TRAF1. Put plainly: TRAF1 levels by Western blot after shRNA knockdown. Particulars: RAJI stably expressing shRNA, versus control treated RAJI. On the procedure:
Left: RAJI cells were stably transfected with control small hairpin (sh) RNA or with shRNA designed to knockdown expression of TRAF1 (shRNAs obtained from Open Biosystems (TRC library number: TRCN0000056885 sequence: […]) (SEQ ID NO:1)). TRAF1 levels in RAJI expressing shCtrl or with shTRAF1 were analyzed by Western blot. Protein loading was analyzed based on GAPDH levels. Right: TRAF1 levels in B-chronic lymphocytic leukemia (CLL) lines and Daudi CD5+ (a Burkitt's lymphoma with CLL like properties) were determined by Western blot.
Left: Schematic diagram of TRAF1 indicating site of phosphorylation by PKN1 as identified by Kato et al.^29 Middle: RAJI cells were stably transfected with control shRNA (shCtrl), TRAF1 shRNA (shTRAF1) or PKN1 shRNA (shPKN1) (obtained from Open Biosystems (TRC library number: TRCN0000001484 sequence: […] (SEQ ID NO:2)). Right: Daudi cells were transduced with control shRNA (shCTRL), shRNA targeting TRAF1 (shTRAF1) or shRNA targeting PKN1 (shPKN1). Cells were analyzed for levels of TRAF1, tubulin or GAPDH by western blot. “Pool” refers to bulk transfected cell lines without subcloning.
Based on the finding that primary T cells lacking TRAF1 are sensitive to loss of TRAF2 when 4-1 BB signalling is induced during nutrient stress, the role of the reduction of TRAF1 levels combined with nutrient stress on B lymphomas was tested. […]

In the next data set the test system is Erk and NF-κB activation. Put plainly: Flow cytometry for pERK and phospho P65 subunit of NFkB. Particulars: RAJI knockdown cells versus control sample. From the text: (A) Whole cell extracts from RAJI cells treated with control shRNA (shCTRL) or TRAF2 shRNA (shTRAF2) were immunoblotted for TRAF2 or as a loading control, GAPDH. (B) Annexin V staining of RAJI after Erwinase treatment (1 IU/ml; 24 hrs) in shCTRL, shTRAF1 or shTRAF2 cells.
TRAF2 knockdown also decreases RAJI survival in the presence of Erwinase (FIG. 14). […] On the Y axis, is indicated knockdown of TRAF2, PKN1, TRAF1 or control sample. The vertical dashed line indicates the peak level of expression in the control sample for comparison with the knockdown cells.

The subject of the next data set is mTORC1. Put plainly: pS6K / pS6 level as marker of mTORC1 activation. Particulars: RAJI lymphoma cells. An excerpt:
Left: Levels of pS6K in RAJI control cells. Right: Levels of pS6K in RAJI shTRAF1. Upper panels show pS6K, lower panels show GAPDH to control for equal loading. B. Schematic showing link between nutrient stress, mTORC1 and pS6. C. Left: Representative flow cytometry analysis of TRAF1 and phospho-S6 expression in Raji shCTRL and Raji shTraf1 cells. […] FMO is fluorescence minus one control stain. Right: Correlation plot of TRAF1 versus phospho-S6 expression in lymphoma and CLL cell lines (gated on live cells). All flow cytometry is based on gating on live cells (using live/dead staining marker).
In an effort to understand the mechanism of synergy between lowering TRAF1 levels and increased sensitivity to Erwinase, the activity of mTORC1, a key sensor of the nutrient state of the cells, was examined. Nutrient stress inhibits the activation of mTORC1, a key regulator of proliferation, metabolism and cell survival.^35 PhosphoS6K (pS6K), a downstream target of mTORC1, can be used as a marker of mTORC1 activation. […] However, unexpectedly, TRAF1 knockdown cells had lower basal level of pS6K prior to treatment, perhaps explaining the synergistic effect of TRAF1 knockdown with Erwinase treatment (FIG. 11A—compare right to left western blots). […] Further, a correlation between the level of TRAF1 in the cell and the activity of mTORC1 as measured by pS6 levels was shown (FIG. 11C).

Another data set concerns TRAF2. Put plainly: TRAF2 levels by immunoblot during nutrient stress. Particulars: RAJI cells, nutrient stress (low glutamine), versus WT. The method, then: (B) Wild type (WT), shCtrl or shTRAF1 RAJI cells were treated with 1 IU/ml Erwinase for 1, 3 or 6 hrs and immunoblotted for TRAF2 and TRAF1.
Right: RAJI cells stably expressing shCtrl or shPKN1 were treated with 1 IU/ml Erwinase for 0, 3 or 6 hrs and lysates were immunoblotted for TRAF2, or as a loading control, GAPDH.
To test the effect of lower levels of TRAF1 on the level of TRAF2 in lymphoma, WT and shTRAF1 RAJI cells were incubated under conditions of nutrient stress (low glutamine). […] In order to mimic conditions of nutrient stress in a manner that can be useful therapeutically, the licensed drug Erwinase (described above) was utilized. […] Of note, in contrast to the work with primary cells, the loss of TRAF2 when TRAF1 is limiting occurred without a need to add reagents to specifically engage a TNFR family member, but rather occurs spontaneously upon nutrient stress.

“shTRAF1: shRNA designed to knockdown expression of TRAF1, sequence CGTGTGTTTGAGAACATTG (Open Biosystems TRC library)”: the “sensitivity to Erwinase induced death (Annexin V/PI)” value in data set [1] is given as “increases the sensitivity of the Chronic lymphocytic leukemia cell line MEC2 to Erwinase induced death”. The TRAF1 levels entry in the data set with TRAF1 is listed as “substantially lower levels of TRAF1”. Further, the “constitutive Erk and NF-κB activation” value with Erk and NF-κB activation was “reduces constitutive Erk and NF-κB activation”. The “level of pS6K / pS6” value in the data set on mTORC1 is reported as “levels of pS6 are lower”. Further, the “TRAF2 level under low glutamine” value in the data set on TRAF2 is recorded as “TRAF2 was lost”.
